Converted amounts (≈) assume the structure as drawn. Like-named read-outs stand apart in the source and are kept apart here.
Experiments:
Type in all cases: physicochemical
[1] = high throughput permeability (HT-Permeability, log Pe); settings: PAMPA, Pe in cm/s
[2] = HT-logP o/w, high throughput assay based on artificial liquid membrane permeability
From the text: To be absorbed and transported by passive diffusion, drugs must be sufficiently lipophilic to penetrate the lipid cores of membranes, but not too lipophilic that they get retained and accumulated there. The lipophilictity of a compound is expressed by the octanol/water partition coefficient or distribution coefficient. A first approximation of substance polarity can either be given by computer assisted calculations giving Clog P values or by measurement of the partition coefficients in high-throughput assays (HT-log P o/w) (Faller et al., 2004; Wohnsland et al., 2001).
Octanol/water partition coefficients are measured in a high throughput assay based on artificial liquid membrane permeability. […] Still many approaches to calculate log P values are limited due to a lack of parameterization of certain fragments and fail with increasing molecular weight which implicates higher structural complexity. Similar problems and failures are observed in chromatographic determinations of log P: Peptides might undergo structural changes driven by interactions with the stationary phase. Decisive interactions between the stationary phase and the defolded analytes are therefore also based on the linear peptide sequence. For this reason measured HT-log P o/w values based on chromatographic assays employing stationary phases may lead to erroneous results.

[3] = high throughput solubility (HT-Solubility); settings: for water solubility (in words): see FIG. 10
[4] = pH 4, pH 4.0, read-out: HT-Permeability logPe pH 4.0 (converted)
[5] = pH 8, pH 8.0, read-out: HT-Permeability logPe pH 8.0 (converted)
[6] = octanol/water, read-out: HT LogP ohw
[7] = pH 1, pH 1.0, read-out: HT-Solubility pH 1.0
[8] = pH 6.8, pH 6.8, read-out: HT-Solubility pH 6.8
[9] = pH 6.8, pH 6.8, read-out: HT-Permeability logPe pH 6.8 (converted)
[10] = pH 4.0, read-out: HT-Permeability logPe pH 4.0 (converted)
[11] = octanol/water; read-out: HT LogP ohw
[12] = pH 1.0, read-out: HT-Solubility pH 1.0
[13] = pH 6.8, read-out: HT-Solubility pH 6.8

Structure (SMILES) | Papp [1, 4] [×10⁻⁶ cm/s] | Papp [1, 5] [×10⁻⁶ cm/s] | logP [2, 6] | solubility [3, 7] [µg/mL] | solubility [3, 8] [µg/mL] | water solubility (in words) [3] | Papp [1, 9] [×10⁻⁶ cm/s] | Papp [1, 10] [×10⁻⁶ cm/s] | logP [2, 11] | solubility [3, 12] [µg/mL] | solubility [3, 13] [µg/mL] | HT LogP ohw ([2]; octanol/water) | HT-Solubility pH 1.0 ([3]; pH 1.0) [g 1-1] | HT-Solubility pH 6.8 ([3]; pH 6.8) [g 1-1]
C[C@H]1OC(=O)C[C@H]1NC(=O)C[C@H](CCCCN)NC(=O)[C@@H](Cc1c[nH]c2ccccc12)NC(=O)C[C@H](Cc1ccccc1)NC(=O)C12CC3CC(CC(C3)C1)C2 [Compound 13, Adamantoyl-(S)-β^3-HPhe-(R)-Trp-(S)-β^3-HLys-(R)-4-amino-(R)-5-methyl-dihydro-furan-2-one] | 3.16 | 10 | 2.8 | 153 (≈ 200 µM) | 76.7 (≈ 100 µM) | good water solubility | – | – | – | – | – | – | – | –
CCCCCNC(=O)C[C@H](CCCCN)NC(=O)[C@@H](Cc1c[nH]c2ccccc12)NC(=O)C[C@H](Cc1ccccc1)NC(=O)CCC [Compound 55, Butyroyl-(S)-β^3-HPhe-(R)-Trp-(S)-β^3-HLys-pentyl-amide] | 2.51 | – | 3.7 | 64.7 (≈ 100 µM) | 12.9 (≈ 19.9 µM) | – | 0.1 | – | – | – | – | – | – | –
CN[C@H](CC(=O)N[C@H](Cc1c[nH]c2ccccc12)C(=O)N[C@@H](CCCCN)CC(=O)N[C@@H]1CC(=O)O[C@@H]1C)Cc1ccccc1 [Compound 38, N-Me-(S)-β^3-HPhe-(R)-Trp-(S)-β^3-HLys-(R)-4-amino-(R)-5-methyl-dihydro-furan-2-one] | 0.1 | – | 3.2 | 124 (≈ 200 µM) | 30.9 (≈ 49.9 µM) | – | – | – | – | – | – | – | – | –
CCCCN(C)C(=O)C[C@H](CCCCN)NC(=O)[C@@H](Cc1c[nH]c2ccccc12)NC(=O)C[C@H](Cc1ccccc1)NC(=O)CC [Compound 43, Propionyl-(S)-β^3-HPhe-(R)-Trp-(S)-β^3-HLys-methyl-butyl-amide] | 1 | 1.26 | 3 | 127 (≈ 200 µM) | 126 (≈ 200 µM) | highest solubility values | 2 | – | – | – | – | – | – | –
C[C@H]1OC(=O)C[C@H]1NC(=O)C[C@H](CCCCN)NC(=O)[C@@H](Cc1c[nH]c2ccccc12)NC(=O)C[C@@H](N)Cc1ccccc1 [Compound 28, (S)-β^3-HPhe-(R)-Trp-(S)-β^3-HLys-(R)-4-amino-(R)-5-methyl-dihydro-furan-2-one] | – | 3.16 | 3.5 | 60.5 (≈ 100 µM) | 60.5 (≈ 100 µM) | – | – | – | – | – | – | – | – | –
CCCCCN(C)C(=O)C[C@H](CCCCN)NC(=O)[C@@H](Cc1c[nH]c2ccccc12)NC(=O)C[C@H](Cc1ccccc1)NC(C)=O [Compound 47, Ace-(S)-β^3-HPhe-(R)-Trp-(S)-β^3-HLys-methyl-pentyl-amide] | 3.98 | 1 | 3 | 127 (≈ 200 µM) | 127 (≈ 200 µM) | highest solubility values | 1.58 | – | – | – | – | – | – | –
CCCCCN(C)C(=O)C[C@H](CCCCN)NC(=O)[C@@H](Cc1c[nH]c2ccccc12)NC(=O)C[C@H](Cc1ccccc1)NC(=O)CCC [Compound 41, Butyroyl-(S)-β^3-HPhe-(R)-Trp-(S)-β^3-HLys-methyl-pentyl-amide] | 2.51 | 1 | 3.6 | 132 (≈ 200 µM) | 132 (≈ 200 µM) | highest solubility values | 3.98 | – | – | – | – | – | – | –
CCCCNC(=O)C[C@H](CCCCN)NC(=O)[C@@H](Cc1c[nH]c2ccccc12)NC(=O)C[C@H](Cc1ccccc1)NC(=O)CC [Compound 53, Propionyl-(S)-β^3-HPhe-(R)-Trp-(S)-β^3-HLys-butyl-amide] | 7.94 | 10 | 3.1 | 124 (≈ 200 µM) | 30.9 (≈ 49.9 µM) | medium to good | 5.01 | – | – | – | – | – | – | –
C[C@@H](O)[C@@H](CC(N)=O)NC(=O)C[C@H](CCCCN)NC(=O)[C@@H](Cc1c[nH]c2ccccc12)NC(=O)C[C@H](Cc1ccccc1)NC(=O)c1ccccc1 [Compound 14, Benzoyl-(S)-β^3-HPhe-(R)-Trp-(S)-β^3-HLys-(R), (R)—HThr-NH2] | – | – | – | – | – | – | – | 0.1 | 2.6 | 145 (≈ 200 µM) | 14.5 (≈ 20 µM) | – | – | –
CC(=O)N[C@H](CC(=O)N(C)[C@H](Cc1c[nH]c2ccccc12)C(=O)N[C@@H](CCCCN)CC(=O)N[C@@H]1CC(=O)O[C@@H]1C)Cc1ccccc1 [Compound 40, Ac—(S)-β^3-HPhe-(R)—N-Me-Trp-(S)-β^3-HLys-(R)-4-amino-(R)-5-methyl-dihydro-furan-2-one] | 0.1 | – | 3.3 | 66.1 (≈ 100 µM) | 13.2 (≈ 20 µM) | – | – | – | – | – | – | – | – | –
CCN(CC)C(=O)C[C@@H](NC(=O)C[C@H](CCCCN)NC(=O)[C@@H](Cc1c[nH]c2ccccc12)NC(=O)C[C@H](Cc1ccccc1)NC(=O)CCc1ccccc1)C(C)C [Compound 24, Dihydrocinnemoyl-(S)-β^3-HPhe-(R)-Trp-(S)-β^3-HLys-(R)-β^3-Leu-diethyl-amide] | 0.1 | – | 4.1 | 16.2 (≈ 20 µM) | 16.2 (≈ 20 µM) | – | – | – | – | – | – | – | – | –
NCCCC[C@@H](CC(=O)NC1CCCC1)NC(=O)[C@@H](Cc1c[nH]c2ccccc12)NC(=O)C[C@@H](N)Cc1ccccc1 [Compound 62, (S)-β^3-HPhe-(R)-Trp-(S)-β^3-HLys-cyclopentyl-amide] | 5.01 | 3.98 | 2.9 | 115 (≈ 200 µM) | 115 (≈ 200 µM) | – | – | – | – | – | – | – | – | –
CCCCN(C)C(=O)C[C@H](CCCCN)NC(=O)[C@@H](Cc1c[nH]c2ccccc12)NC(=O)C[C@H](Cc1ccccc1)NC(=O)CCC [Compound 42, Butyroyl-(S)-β^3-HPhe-(R)-Trp-(S)-β^3-HLys-methyl-butyl-amide] | 1 | 5.01 | 3.7 | 64.7 (≈ 100 µM) | 129 (≈ 200 µM) | highest solubility values | 2 | – | – | – | – | – | – | –
C[C@H]1OC(=O)C[C@H]1NC(=O)C[C@H](CCCCN)NC(=O)[C@@H](Cc1c[nH]c2ccccc12)NC(=O)C[C@H](Cc1ccccc1)NC(=O)c1ccccc1 [Compound 6, Benzoyl-(S)-β^3-HPhe-(R)-Trp-(S)-β^3-HLys-(R)-4-amino-(R)-5-methyl-dihydro-furan-2-one] | – | – | – | – | – | – | – | 0.1 | 2.8 | 142 (≈ 200 µM) | 14.2 (≈ 20 µM) | – | – | –
CC(=O)N[C@H](CC(=O)N[C@H](Cc1c[nH]c2ccccc12)C(=O)N[C@@H](CCCCN)CC(=O)NC1CCCC1)Cc1ccccc1 [Compound 31, Ac—(S)-β^3-HPhe-(R)-Trp-(S)-β^3-HLys-cyclopentyl-amide] | 2.51 | 1 | 2.8 | 123 (≈ 200 µM) | 123 (≈ 200 µM) | – | 2 | – | – | – | – | – | – | –
CC(C)[C@@H](CC(=O)N(C)CCc1ccccc1)NC(=O)C[C@H](CCCCN)NC(=O)[C@@H](Cc1c[nH]c2ccccc12)NC(=O)C[C@H](Cc1ccccc1)NC(=O)CCc1ccccc1 [Compound 23, Dihydrocinnemoyl-(S)-β^3-HPhe-(R)-Trp-(S)-β^3-HLys-(R)-β^3-Leu-methyl-phenethyl-amide] | 0.1 | – | 5.9 | 17.4 (≈ 20 µM) | 17.4 (≈ 20 µM) | – | – | – | – | – | – | – | – | –
CCCC(=O)N[C@H](CC(=O)N[C@H](Cc1c[nH]c2ccccc12)C(=O)N[C@@H](CCCCN)CC(N)=O)Cc1ccccc1 [Compound 61, Butyroyl-(S)-β^3-HPhe-(R)-Trp-(S)-β^3-HLys-NH2] | 1.26 | 1 | 2.8 | 115 (≈ 200 µM) | 115 (≈ 200 µM) | – | – | – | – | – | – | – | – | –
CCCCCNC(=O)C[C@H](CCCCN)NC(=O)[C@@H](Cc1c[nH]c2ccccc12)NC(=O)C[C@H](Cc1ccccc1)NC(=O)CC [Compound 51, Propionyl-(S)-β^3-HPhe-(R)-Trp-(S)-β^3-HLys-pentyl-amide] | – | 3.98 | – | – | – | medium to good | – | – | – | – | – | 3.4 | 0.1266 | 0.0316
CC(=O)N(C)[C@H](CC(=O)N[C@H](Cc1c[nH]c2ccccc12)C(=O)N[C@@H](CCCCN)CC(=O)N[C@@H]1CC(=O)O[C@@H]1C)Cc1ccccc1 [Compound 39, Ac—N-Me-(S)-β^3-HPhe-(R)-Trp-(S)-β^3-HLys-(R)-4-amino-(R)-5-methyl-dihydro-furan-2-one] | 5.01 | 3.16 | 3.4 | 132 (≈ 200 µM) | 132 (≈ 200 µM) | – | 2 | – | – | – | – | – | – | –
CCCCNC(=O)C[C@H](CCCCN)NC(=O)[C@@H](Cc1c[nH]c2ccccc12)NC(=O)C[C@H](Cc1ccccc1)NC(=O)CCC [Compound 54, Butyroyl-(S)-β^3-HPhe-(R)-Trp-(S)-β^3-HLys-butyl-amide] | 0.1 | – | 3.5 | 127 (≈ 200 µM) | 12.7 (≈ 20.1 µM) | – | – | – | – | – | – | – | – | –
CCCCCCN(C)C(=O)C[C@H](CCCCN)NC(=O)[C@@H](Cc1c[nH]c2ccccc12)N(Cc1ccccc1)C(=O)C[C@H](Cc1ccccc1)NC(=O)CC [Compound 69, Propionyl-(S)-β^3-HPhe-(R)—N-Benzyl-Trp-(S)-β^3-HLys-methyl-hexyl-amide] | – | – | – | – | – | does not allow for good water solubilities | – | – | – | – | – | 5.1 | 0.0751 | 0.015

Reference: patent US20090305995A1, “AGONISTS AND ANTAGONISTS OF THE SOMATOSTATIN RECEPTOR” (Novartis AG, priority 2004, published 2009)
